Molecules are shown by their SMILES.

This is an account of results in article PMC11264596, “Auxin-mediated regulation of susceptibility to toxic metabolites, c-di-GMP levels, and phage infection in the rhizobacterium Serratia plymuthica” (mSystems, 2024).

For the experiment, the target named is T1, TrpRA153 (AWY96_RS12805) (Serratia plymuthica, UniProt A0A2X4U763).
T1 construct: gene trpR
Nature of the experiment: isothermal titration calorimetry. Format: binding.
As usually defined, the Kd is a measure of binding affinity in units of concentration. In the case of `N[C@@H](Cc1c[nH]c2ccccc12)C(=O)O` [L-Trp], the Kd was 91 ± 3 µM.
The compound `O=C(O)Cc1c[nH]c2ccccc12` [IAA, indole-3-acetic acid] displayed a Kd of 326 ± 30 µM.
Regarding `O=C(O)C(=O)Cc1c[nH]c2ccccc12` [IPA, indole-3-pyruvic acid], binding was characterised by a dissociation constant (Kd) of 101 ± 7 µM.
